Columns and labels:
sterol 14-reductase = biological target: T1, sterol 14-reductase (Rattus norvegicus, UniProt A0ACM8Q6X4); assay: Inhibition of sterol 14-reductase in rat liver microsomes; assay type: biochemical; conditions: read-out: Enzyme Activity (relative in vitro activity for sterol 14-reductase, IC50 class)
T1 construct: microsome which was used as an enzyme source of sterol 14-reductase; from tissue; host or cells: liver microsomes of male Sprague-Dawley rats fed lovastatin and cholestyramine
T1 sequence (A0ACM8Q6X4 1-418): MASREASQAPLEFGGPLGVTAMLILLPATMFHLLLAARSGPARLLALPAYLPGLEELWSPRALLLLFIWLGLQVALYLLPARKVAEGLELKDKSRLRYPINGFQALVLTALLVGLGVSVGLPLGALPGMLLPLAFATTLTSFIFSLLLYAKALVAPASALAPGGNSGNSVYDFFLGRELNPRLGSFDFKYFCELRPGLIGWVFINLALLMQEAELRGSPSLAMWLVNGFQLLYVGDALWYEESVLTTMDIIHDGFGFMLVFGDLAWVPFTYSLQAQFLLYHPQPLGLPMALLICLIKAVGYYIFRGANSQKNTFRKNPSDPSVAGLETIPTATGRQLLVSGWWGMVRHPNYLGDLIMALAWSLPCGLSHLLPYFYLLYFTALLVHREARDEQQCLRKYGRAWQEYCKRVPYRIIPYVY
Description: 20 Male Sprague-Dawley rats weighing from 150 to 250 g have been fed for 7 days with a diet containing 0.1% (w/w) Lovastatin and 5% (w/w) Cholestyramine. The animals were fasted for 12 hours before excising liver tissues and then sacrificed by decapitation at midnight. An aqueous solution containing 0.25M of sucrose was injected into the hepatic portal vein to remove all the blood within the liver, and then, the liver was excised. The liver was homogenated with two volumes of buffer solution A (0.1M potassium phosphate, 1 mM reduced glutathione, 0.5 mM EDTA, 20% (v/v) glycerol, pH 7.4) by repeating pestles over 10 times and then, centrifuged with 900×g for 5 minutes to give a supernatant. The supernatant was centrifuged with 12,000×g for 20 minutes. The supernatant obtained was ultracentrifuged with 105,000×g for 90 minutes to give a microsome which was used as an enzyme source of sterol 14-reductase. Assay for sterol 14-reductase was carried out as follows:
60 mmol of 4,4-dimethyl-5α-cholesta-7,14-dien-3β-ol and 5,6-dihydrodibenzo-[a,g]quinolizinium salts (compound no. 2) dissolved in DMSO were added to an assay mixture (total volume 1.0 ml) containing 2 mg of the microsomal protein, 2 mM of NADPH and 25 mg of glucose plus 20 units of glucose oxidase with preincubations under nitrogen at 37° C. for 4 min. unless otherwise specified to establish anaerobic condition. Buffer A (0.1M potassium phosphate buffer, pH 7.4, including 1 mM reduced glutathione, 0.5 mM EDTA, and 20% (v/v) glycerol) used for incubation had been equilibrated with nitrogen, and nitrogen was exchanged for air in all sealed reaction flasks prior to the start of incubations. Incubation of the complete mixture was carried out anaerobically in sealed flasks for 10 min at 37° C. unless otherwise indicated. Incubations were terminated by the addition of 1 ml of ethanolic KOH followed by heating under reflux for 10 min. Sterols were extracted four times with 4 ml of petroleum ether, and the solvent was evaporated to dryness under a nitrogen stream. The resulting residue was dissolved in 200-500 μl of n-hexane for quantification by GLC at high sensitive attenuation. The activity of sterol 14-reductase was determined with the amount of the substrate wherein the double bonds of 14-carbon were reduced (for the amount reduced by 1 mg of the microsome protein for 1 minute).

HepG2 cells = assay: Cholesterol biosynthesis in cultured human liver cell line ([1,2-14C]acetate incorporation); assay type: cell-based; conditions: compared with AY9944 (comparative drug)
Description: Cultured human liver HepG2 cell line was grown on RPMI (Rosewell park Memorial Institute) 1640 culture medium containing 10% PBS until 60% of monolayer are formed in a 60 mm culture dish. After replacing the medium with 3 ml of a fresh culture medium containing 10% (v/v) LPDS (Fetal calf lipoprotein-deficient serum), the cells were further grown for 48 hours until 90% of cultivation degree appear The culture medium was removed and the cell was then washed with PBS. 2 ml of culture medium containing compound no. 2 (final concentration 100 μM) and AY-9944 (final concentration 1 μM) were added thereto. Then, the medium was cultivated at 37° C. for 1 hour under the condition of 95% air/5% carbonic acid gas. AY-9944 which is an inhibitor for sterol 7-reductase was used as a control drug for assuring the present experimental procedure on the inhibition of cholesterol biosynthesis. Thereafter, 3 μCi of [1,2-^14 C]acetate (72 mCi/mmol) were added thereto. The cultivation was continued for 2 hours so that the isotope is introduced into the cell and used as a precursor for sterol to be synthesized. Then, the culture medium was completely removed and washed with PBS twice and the cells were collected by scratching. 10 μg of cholesterol, 10 μg of lanosterol and [^3 H]cholesterol (30,000 dpm) were added thereto, and saponification reaction was carried out at 70° C. for an hour by adding 7.5% of methanolic KOH solution. Unsaponified sterol was removed by extracting them three times with 3 ml of petroleum ether and dried with nitrogen purging. The dried samples were redissolved in 200 μl of chloroform. An aliquot of the samples was loaded onto Silicagel 60F thin layer plate and then separated using ethyl acetate/hexane 25/75 (v/v) as the developing solvent. The thin layer film was developed by exposure to Amersham Hyperfilm at -70° C. for 7 days. Cholesterol band were confirmed by comparing the band appeared in the film and that appeared in the iodine-stained thin layer. After scratching the cholesterol band, it was quantified by a liquid scintillation counter.

SD rats = assay: Acute oral toxicity in SD rats; assay type: in vivo; conditions: for general symptoms and the body weight change: oral dose over 2,000 mg/kg, monitored for two weeks; for lethal case: rat, in vivo
Description: (§1) Meanwhile, the toxicity of the compounds of the present invention was investigated as follows: i.e., the compounds were suspended into propylene glycol and then orally administered into each of 5 male and female SD rats at the age of 5-weeks that were fasted for 12 hours. Under the usual breeding conditions, general symptoms, weight change and lethal case of the above rats were monitored for two weeks. At the dose over 2,000 mg/kg of the compound nos. 2, 3, 9 and 68, general symptoms and the body weight change of the animals were normal and the lethal case was not observed.

[1] = Acute oral toxicity in SD rats; assay type: in vivo; conditions: rat, in vivo, po, rats
Description: as §1

Syrian Golden Hamster = assay: In vivo effect on plasma lipids in Syrian Golden Hamster; conditions: for HDL cholesterol, change versus normal diet control / LDL cholesterol, change versus normal diet control / Total cholesterol, change versus normal diet control / Triglyceride, change versus normal diet control / HDL cholesterol / LDL cholesterol / Total cholesterol / Triglyceride: 0.3 mg/kg/day oral, 14 days; for total cholesterol, LDL-cholesterol, and triglyceride levels: compared with lovastatin; for HDL cholesterol / LDL cholesterol / Total cholesterol / Triglyceride: normal diet, plasma
Description: In order to investigate the effect of the compound of formula (I) of the invention, the compound was orally administered into male Syrian Golden Hamsters having weights of 90~110 g for two weeks and blood was then taken from each animal. Plasma lipids, i.e., total cholesterol, LDL-cholesterol,HDL-cholesterol and triglycerides were analyzed using an automatic analyzer (Automatic analyzer model Hitachi 7150).
Male Syrian Golden Hamsters weighing 90~110 g distributed from Samyuk Animal Laboratory, Seoul, Korea were bred under the following conditions: they were maintained under reverse light cycle (light cycle: from 6 P.M to 6 A.M; dark cycle: from 6 A.M. to 6 P.M.). The food and water were supplied at 10 A.M. The commercially available standard rodent chows were used. The hamsters were divided into 6 or 7 animals per group. The animals were fasted for 12 hours before administrating the drug. Then, 5,6-dihydrodibenzo[a,g]quinolizinium salts (compound no. 2) dissolved in a 0.25% methyl cellulose solution was administered orally for 14 days at the indicated time per a day. After fasting animals for 24 hours from the last administration, blood was extracted using a cardiac puncture and plasma was then isolated. Plasma lipids, i.e., total cholesterol, LDL-cholesterol, HDL-cholesterol and triglyceride values were analyzed using Automatic Analyzer (Hitachi 7150).

| SMILES | IC50 (sterol 14-reductase) [nM] | inhibition of cholesterol biosynthesis in human HepG2 cell line (HepG2 cells) | general symptoms and the body weight change (SD rats) | lethal case (SD rats) | LD50 at 336 h ([1]; female) [mg/kg] | LD50 at 336 h ([1]; male) [mg/kg] | HDL cholesterol, change versus normal diet control (Syrian Golden Hamster) [%] | LDL cholesterol, change versus normal diet control (Syrian Golden Hamster) [%] | Total cholesterol, change versus normal diet control (Syrian Golden Hamster) [%] | Triglyceride, change versus normal diet control (Syrian Golden Hamster) [%] | total cholesterol, LDL-cholesterol, and triglyceride levels (Syrian Golden Hamster) | HDL cholesterol (Syrian Golden Hamster) [mg/dL] | LDL cholesterol (Syrian Golden Hamster) [mg/dL] | Total cholesterol (Syrian Golden Hamster) [mg/dL] | Triglyceride (Syrian Golden Hamster) [mg/dL] |
| --- | --- | --- | --- | --- | --- | --- | --- | --- | --- | --- | --- | --- | --- | --- | --- |
| CCc1c2[n+](cc3c(OCc4ccc(C(F)(F)F)cc4)c(OC)ccc13)CCc1cc(OC)c(OC)cc1-2 [Compound No. 9, 5,6-dihydro-2,3-dimethoxybenzo[a]-13-ethyl-10-methoxy-9-(4-trifluoromethyl)benzyloxybenzo[g]quinolizinium chloride] | < 1000 | markedly inhibited | normal | not observed | > 2000 | > 2500 | -6.0 | -45.4 | -37.0 | -43.6 | markedly decreased | 56.2 ± 3.0 | 20.2 ± 2 | 82.4 ± 7 | 44.8 ± 5.5 |
| CCCOc1cc2c(cc1OCCC)-c1c(CC)c3ccc(OCCC)c(OCc4ccc(C(F)(F)F)cc4)c3c[n+]1CC2 [Compound No. 68, 5,6-dihydro-2,3-dipropoxybenzo[a]-13-ethyl-10-propoxy-9-(4-trifluoromethyl)benzyloxybenzo[g]quinolizinium chloride] | < 1000 | markedly inhibited | normal | not observed | > 3000 | > 3000 | -2.0 | -41.1 | -33.1 | -43.1 | markedly decreased | 58.6 ± 3 | 21.8 ± 3 | 87.4 ± 6 | 45.2 ± 7 |
